Converted amounts (≈) assume the structure as drawn.
Molecular target: α-amylase
Assay: starch hydrolysis, dinitrosalicylic acid assay at […] nm
Type: biochemical

CC[C@H](/C=C/[C@@H](C)[C@H]1CC[C@H]2[C@@H]3CC=C4C[C@@H](O)CC[C@]4(C)[C@H]3CC[C@]12C)C(C)C [stigmasterol]
IC50: 89.27 µg/mL (≈ 216 µM)
